Data taken from patent publication US20220159955A1, “METHOD OF IMPROVING PLANT GROWTH” (UPL LTD, priority 2020, published 2022).
“Also recorded” adds a separate entry of the source.

Tests used:
Format in all cases: in vivo
rice (DSR) [1] = assay: Seed treatment in rice (DSR): plant height, PGE rating, tillers (Example 4)
transplanted rice [2] = assay: Seed treatment in transplanted rice: plant height, PGE rating, tillers (Example 5)
corn seeds [3] = assay: Plant vigour visual rating of corn from treated seeds (Example 3); set-up: Average Plant Vigor visual rating: scale not given here
Experimental: In this experiment the effect was tested on corn seeds. Treated and untreated seeds were sown to see the impact of flonicamid on the plant vigour. A line sowing method was used to sow the seeds.

rice (DSR) [4] = assay: Seed treatment in rice (DSR): germination and crop safety (Example 4)
corn seeds [5] = assay: Phytotoxicity after seed treatment, corn; conditions: treatment of seeds
Thrips [6] = assay: Efficacy of seed treatment on thrips in direct sown rice (Example 4)
Thrips [7] = assay: Efficacy of seed treatment on thrips in transplanted rice (Example 5)
rice (DSR) [8] = assay: Seed treatment in rice (DSR): rice grain yield (Example 4)
transplanted rice [9] = assay: Seed treatment in transplanted rice: germination and crop safety (Example 5)
corn seeds [10] = assay: Germination of flonicamid-treated corn seeds, line sowing (Example 2); conditions: for Average germination %: corn seed
Experimental: In this experiment the effect of flonicamid was tested on corn seeds. Treated and untreated seeds were sown to see the impact of flonicamid on the plant germination. Treatments are performed using FS formulation of example 1. A line sowing method was used to sow the seeds.

SMILES: N#CCNC(=O)c1cnccc1C(F)(F)F [Flonicamid, N-cyanomethyl-4-trifluoromethylnicotinamide]
- PGE rating (rice (DSR) [1]; 5 ml/kg Seed, 15 DAS): 2
- Plant hight (cm) (rice (DSR) [1]; 5 ml/kg Seed, 15 DAS): 12.83 cm
- Plant hight (cm) (rice (DSR) [1]; 5 ml/kg Seed, 20 DAS): 22.45 cm
- PGE rating (rice (DSR) [1]; 5 ml/kg Seed, 30 DAS): 2
- No. of tiller/hill (rice (DSR) [1]; 5 ml/kg Seed, 45 DAS): 13.5 tiller/hill
- PGE rating (rice (DSR) [1]; 5 ml/kg Seed, 45 DAS): 3
- No. of tiller/hill (rice (DSR) [1]; 5 ml/kg Seed, 60 DAS): 15.3 tiller/hill
- PGE rating (rice (DSR) [1]; 10 ml/kg Seed, 15 DAS): 1
- Plant hight (cm) (rice (DSR) [1]; 10 ml/kg Seed, 15 DAS): 15.33 cm
- Plant hight (cm) (rice (DSR) [1]; 10 ml/kg Seed, 20 DAS): 26.66 cm
- PGE rating (rice (DSR) [1]; 10 ml/kg Seed, 30 DAS): 1
- No. of tiller/hill (rice (DSR) [1]; 10 ml/kg Seed, 45 DAS): 17.2 tiller/hill
- PGE rating (rice (DSR) [1]; 10 ml/kg Seed, 45 DAS): 2
- No. of tiller/hill (rice (DSR) [1]; 10 ml/kg Seed, 60 DAS): 19.7 tiller/hill
- crop vigour parameter (in words) (rice (DSR) [1]; seed treatment vs untreated): improvement in crop vigour parameter
- Plant height (cm) (transplanted rice [2]; 5 ml/kg Seed, 15DAS): 51.5 cm
- Plant height (cm) (transplanted rice [2]; 5 ml/kg Seed, 20DAS): 72.8 cm
- PGE rating (transplanted rice [2]; 5 ml/kg Seed, 30 DAS): 2
- No. of tiller/hill (transplanted rice [2]; 5 ml/kg Seed, 45DAS): 20.8 tiller/hill
- PGE rating (transplanted rice [2]; 5 ml/kg Seed, 45DAS): 2
- No. of tiller/hill (transplanted rice [2]; 5 ml/kg Seed, 60DAS): 22.6 tiller/hill
- Plant height (cm) (transplanted rice [2]; 10 ml/kg Seed, 15DAS): 58.4 cm
- Plant height (cm) (transplanted rice [2]; 10 ml/kg Seed, 20DAS): 78.5 cm
- PGE rating (transplanted rice [2]; 10 ml/kg Seed, 30 DAS): 1
- No. of tiller/hill (transplanted rice [2]; 10 ml/kg Seed, 45DAS): 25.6 tiller/hill
- PGE rating (transplanted rice [2]; 10 ml/kg Seed, 45DAS): 1
- No. of tiller/hill (transplanted rice [2]; 10 ml/kg Seed, 60DAS): 28.5 tiller/hill
- Average Plant Vigor visual rating (corn seeds [3]; 5 g/ml/kg Seed, 10DAS): 2
- Average Plant Vigor visual rating (corn seeds [3]; 5 g/ml/kg Seed, 20DAS): 1
- Average Plant Vigor visual rating (corn seeds [3]; 5 g/ml/kg Seed, 30DAS): 1
- Average Plant Vigor visual rating (corn seeds [3]; 5 g/ml/kg Seed, 40DAS): 1
- Average Plant Vigor visual rating (corn seeds [3]; 10 g/ml/kg Seed, 10DAS): 2
- Average Plant Vigor visual rating (corn seeds [3]; 10 g/ml/kg Seed, 20DAS): 1
- Average Plant Vigor visual rating (corn seeds [3]; 10 g/ml/kg Seed, 30DAS): 1
- Average Plant Vigor visual rating (corn seeds [3]; 10 g/ml/kg Seed, 40DAS): 1
- growth versus untreated control (in words) (corn seeds [3]; 30 days after sowing): Excellent growth
- % Germination (rice (DSR) [4]; 5 ml/kg Seed): 90%
- No. of germinated seed/sq · m (rice (DSR) [4]; 5 ml/kg Seed, 5DAS): 65.3 seed/sq · m
- No. of germinated seed/sq · m (rice (DSR) [4]; 5 ml/kg Seed, 10DAS): 69.6 seed/sq · m
- No. of germinated seed/sq · m (rice (DSR) [4]; 5 ml/kg Seed, 15 DAS): 70.6 seed/sq · m
- % Germination (rice (DSR) [4]; 10 ml/kg Seed): 98%
- No. of germinated seed/sq · m (rice (DSR) [4]; 10 ml/kg Seed, 5DAS): 70.6 seed/sq · m
- No. of germinated seed/sq · m (rice (DSR) [4]; 10 ml/kg Seed, 10DAS): 73.3 seed/sq · m
- No. of germinated seed/sq · m (rice (DSR) [4]; 10 ml/kg Seed, 15 DAS): 78.6 seed/sq · m
- plant growth/germination (in words) (rice (DSR) [4]; seed treatment vs untreated): enhanced plant growth/germination
- phytotoxicity (corn seeds [5]): no phytotoxicity was observed
- No. of Thrips/Seedling (Thrips [6]; 5 ml/kg Seed, 15DAS): 4.5 Thrips/Seedling
- No. of Thrips/Seedling (Thrips [6]; 5 ml/kg Seed, 20DAS): 8.3 Thrips/Seedling
- No. of Thrips/Seedling (Thrips [6]; 5 ml/kg Seed, 25DAS): 12.3 Thrips/Seedling
- No. of Thrips/Seedling (Thrips [6]; 10 ml/kg Seed, 15DAS): 1.3 Thrips/Seedling
- No. of Thrips/Seedling (Thrips [6]; 10 ml/kg Seed, 20DAS): 4.8 Thrips/Seedling
- No. of Thrips/Seedling (Thrips [6]; 10 ml/kg Seed, 25DAS): 7.2 Thrips/Seedling
- control of thrips (in words) (Thrips [6]; seed treatment vs untreated): better control of thrips
- No. of Thrips/Seedling (Thrips [7]; 5 ml/kg Seed, 15DAS): 2.5 Thrips /Seedling
- No. of Thrips/Seedling (Thrips [7]; 5 ml/kg Seed, 20DAS): 7.2 Thrips /Seedling
- No. of Thrips/Seedling (Thrips [7]; 5 ml/kg Seed, 25DAS): 11.5 Thrips /Seedling
- No. of Thrips/Seedling (Thrips [7]; 10 ml/kg Seed, 15DAS): 1.2 Thrips /Seedling
- No. of Thrips/Seedling (Thrips [7]; 10 ml/kg Seed, 20DAS): 5.6 Thrips /Seedling
- No. of Thrips/Seedling (Thrips [7]; 10 ml/kg Seed, 25DAS): 9.3 Thrips /Seedling
- Rice grain yield t/ha (rice (DSR) [8]; 5 ml/kg Seed): 4.53 t/ha
- Rice grain yield t/ha (rice (DSR) [8]; 10 ml/kg Seed): 4.85 t/ha
- % Germination (transplanted rice [9]; 5 ml/kg Seed): 86%
- No. of germinated seed/sq · m (transplanted rice [9]; 5 ml/kg Seed, 5DAS): 98 seed/sq · m
- No. of germinated seed/sq · m (transplanted rice [9]; 5 ml/kg Seed, 10DAS): 102 seed/sq · m
- No. of germinated seed/sq · m (transplanted rice [9]; 5 ml/kg Seed, 15DAS): 108 seed/sq · m
- % Germination (transplanted rice [9]; 10 ml/kg Seed): 98%
- No. of germinated seed/sq · m (transplanted rice [9]; 10 ml/kg Seed, 5DAS): 110 seed/sq · m
- No. of germinated seed/sq · m (transplanted rice [9]; 10 ml/kg Seed, 10DAS): 120 seed/sq · m
- No. of germinated seed/sq · m (transplanted rice [9]; 10 ml/kg Seed, 15DAS): 128 seed/sq · m
- Average germination % (corn seeds [10]; 5 g/ml/kg Seed, 5DAS): 77.5%
- Average germination % (corn seeds [10]; 5 g/ml/kg Seed, 10DAS): 97.5%
- Average germination % (corn seeds [10]; 5 g/ml/kg Seed, 15DAS): 97.5%
- Average germination % (corn seeds [10]; 10 g/ml/kg Seed, 5DAS): 82.5%
- Average germination % (corn seeds [10]; 10 g/ml/kg Seed, 10DAS): 98%
- Average germination % (corn seeds [10]; 10 g/ml/kg Seed, 15DAS): 98%
- germination of tested corn seeds (in words) (corn seeds [10]; corn, seed treatment vs untreated): significant improvement in germination; also recorded: Enhanced germination %
